The text below walks through data of patent publication US20250057989A1, “TMEM-MCD IN THE MINIMALLY INVASIVE ASSESSMENT OF THE ACTIVITY STATUS OF TMEM IN ITS DISSEMINATION OF TUMOR CELLS” (Albert Einstein College of Medicine, priority 2018, published 2025).

Entries after “also recorded” stand apart in the source; their conditions may differ.

One assay has as its system circulating tumor cells. Particulars: mice with breast cancer, chemotherapy-induced, oral administration; cited from earlier work.
Assay [1] concerns TMEM. Particulars: mice with breast cancer, oral administration; cited from earlier work.
In the next assay the test system is tumor cells. The following applies: mouse models of breast cancer; cited from earlier work.
For another assay, the system named is TMEM function (CTCs). Description: Clinical trial NCT02824575: oral rebastinib to inhibit TMEM function (CTCs) in breast cancer patients. In kind it is in vivo, human.
For assay [2], the system named is TMEM. Description: TMEM-MRI test (Uth) in PyMT mouse model, control vs rebastinib. It counts as in vivo. The following applies: mice, FIGS. 2-3. The source says:
FIGS. 3A-3E. Evaluation of TMEM-MRI assay sensitivity and its values as a companion diagnostic is illustrated by using TMEM-MRI to detect the effect of the commercially available TMEM inhibitor Rebastinib in PyMT mouse model. FIG. 3A depicts a schematic illustration and cohort composition of the MMTV-PyMT Control vs Rebastinib (Ctrl-Reb) transplantation model. FIG. 3B is a chart depicting upper threshold ratio (Uth) of Ctrl-and rebastinib (Reb)-treated tumors. FIG. 3C depicts extravascular dextran assay, showing TMEM association with leaky (lower row), but no association of TMEM with non-leaky (upper row) blood vessel. FIG. 3D is a chart depicting the comparison between extravascular dextran leakiness between Ctrl and Reb-treated tumors. FIG. 3E is a chart depicting circulating tumor cells in mice treated with rebastinib or vehicle control. […]
A new assay for TMEM activity has been developed and validated. […] Using intravenously injected Gd-DTPA, in a dynamic and quantitative assessment allowing assessment of the change in tissue permeability induced by TMEM, with adequate temporal and spatial resolution, the permeability change associated with the TMEM occurrence can be measured with high spatial resolution. […] TMEM facilitated increase in tissue diffusion, measured using the apparent diffusion constant or using Diffusion Tensor Imaging (DTI) may also be developed to detect TMEM. […]

On to `CNC(=O)c1cc(Oc2ccc(NC(=O)Nc3cc(C(C)(C)C)nn3-c3ccc4ncccc4c3)c(F)c2)ccn1` [rebastinib, 4-[4-[(5-tert-butyl-2-quinolin-6-ylpyrazol-3-yl)carbamoylamino]-3-fluorophenoxy]-N-methylpyridine-2-carboxamide], for which the “cancer cell dissemination (circulating tumor cells in the blood, CTCs)” value with circulating tumor cells was “inhibited”. The “chemotherapy-induced TMEM activity (multiphoton imaging of the burst)” value in the assay with TMEM [1] was “inhibited”. The “dissemination of tumor cells” value in the assay on tumor cells is “prevents dissemination of tumor cells”. Further, the “tumor cell dissemination (CTCs) in patients” value in the assay on TMEM function (CTCs) was “prevents dissemination of tumor cells; also recorded: most patients achieved complete inhibition of tumor cell dissemination”. The “TMEM activity detected by TMEM-MRI test” value with TMEM [2] is on record as “inhibition of TMEM activity”.
